Assay results as given in PubChem BioAssay (NCI).
Values joined by “and” are separate entries in the source; they are usually repeats but may differ in a detail not shown here. Equal entries are not always repeated.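 Dose response: 5 concentrations. Exposure: 48 h. Format: 96-well plates. Endpoint: linear interpolation; highest concentration if not reached. GI50 marks 50% less growth. At the TGI there is no net growth.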

Legend:
Experiment in all cases: NCI anticancer screen, dose series, 48 h
[1] = tested on: A498 renal
[2] = tested on: COLO 205 colon
[3] = tested on: HCT-15 colon
[4] = tested on: HOP-92 NSCLC
[5] = tested on: HT29 colon
[6] = tested on: KM12 colon
[7] = tested on: LOX IMVI melanoma
[8] = tested on: NCI-H226 lung
[9] = tested on: OVCAR-4 ovarian
[10] = tested on: PC-3 prostate
[11] = tested on: SNB-75 CNS
[12] = tested on: BT-549 breast

SMILES | TGI [1] | TGI [2] | TGI [3] | TGI [4] | TGI [5] | TGI [6] | TGI [7] | TGI [8] | TGI [9] | TGI [10] | TGI [11] | GI50 [1] | TGI [12] | GI50 [7] | GI50 [9] | GI50 [10]
N#CSCC(Cl)=CCl (mixture of isomers) | > 100 µM | > 100 µM | > 100 µM | > 100 µM | > 100 µM | > 100 µM | 71.7 µM | > 100 µM | > 100 µM | > 100 µM | > 100 µM | – | – | – | – | –
CCOC(=O)Nc1cc2c(c(N)n1)N=C(c1ccc(OC)cc1)CN2 | 0.645 µM and 0.972 µM | 0.196 µM and 0.146 µM | > 100 µM | 48.2 µM | 0.321 µM | > 100 µM | 3.15 µM | – | 49.4 µM | 0.0521 µM and 0.48 µM | 0.277 µM | 0.178 µM | 80.5 µM | 0.0144 µM | 11.4 µM | 0.00142 µM
CC(=O)SCCC(NC(=S)Nc1ccccc1)P(=O)(Oc1ccccc1)Oc1ccccc1 (centres undefined) | – | > 100 µM | > 100 µM | > 100 µM | > 100 µM | > 100 µM | > 100 µM | > 100 µM | > 100 µM | – | > 100 µM | – | – | – | – | –
O=C1NC(=S)N/C1=C\c1cccs1 | – | > 100 µM | > 100 µM | – | > 100 µM | > 100 µM | > 100 µM | > 100 µM | > 100 µM | > 100 µM | > 100 µM | – | > 100 µM | – | – | –
Cc1c(N2C(=O)C(Cl)C2/C=C/c2ccccc2)c(=O)n(-c2ccccc2)n1C (centres undefined) | – | 28 µM | – | 50.2 µM | 56.3 µM | 29.5 µM | 34.5 µM | 61.6 µM | 84.6 µM | > 100 µM | 87.3 µM | – | > 100 µM | – | – | –
O=C1CS(=O)(=O)C(c2cccc(Oc3ccccc3)c2)N1c1ccc(Cl)cc1 (centres undefined) | – | 35.5 µM | > 100 µM | 23.8 µM | > 100 µM | > 100 µM | 29.1 µM | 68.3 µM | > 100 µM | 84.5 µM | > 100 µM | – | 90.1 µM | – | – | –
COc1cc2c(cc1O)c(O)cc1c3cc(OC)c(OC)cc3c[n+](C)c21 | > 100 µM | > 100 µM | > 100 µM | – | > 61.4 µM | > 100 µM | > 55.2 µM | > 25.6 µM | > 100 µM | > 100 µM | > 100 µM | – | > 100 µM | – | – | –
Cc1nc2ccc(Br)cc2c(=O)n1-c1nnc(C(C)(C)C)s1 | – | > 10 µM | > 10 µM | > 10 µM | > 10 µM | > 10 µM | > 10 µM | > 10 µM | > 10 µM | > 10 µM | > 10 µM | – | – | – | – | –
COc1ccc(/C=C2\N=C(N3CCCCC3)NC2=O)cc1 | – | > 100 µM | > 100 µM | > 100 µM | > 100 µM | > 100 µM | > 100 µM | > 100 µM | > 100 µM | > 100 µM | > 100 µM | – | > 100 µM | – | – | –
Clc1ccc(CCN(CCc2ccc(Cl)c(Cl)c2)CCN2CCCC2)cc1Cl | 3.23 µM | 3.48 µM | 3.28 µM | – | 3.41 µM | 3.04 µM | 2.95 µM | 4.07 µM | 3.66 µM | 2.91 µM | 4.73 µM | – | 3.65 µM | – | – | –
